Test results taken from US20170052170A1, “NOVEL CELL LINES AND METHODS” (priority 2009, published 2017).

Legend:
[1] = target: T1, human odorant receptor OR1D2 (Homo sapiens, UniProt P34982); assay: calcium flux assay in cell line expressing human odorant receptor OR1D2; format: cell-based; settings: final concentration 0.3 mM
T1 construct: expressed in transfected cells; host or cells: 293T (HEK293T)
T1 sequence (P34982 1-312): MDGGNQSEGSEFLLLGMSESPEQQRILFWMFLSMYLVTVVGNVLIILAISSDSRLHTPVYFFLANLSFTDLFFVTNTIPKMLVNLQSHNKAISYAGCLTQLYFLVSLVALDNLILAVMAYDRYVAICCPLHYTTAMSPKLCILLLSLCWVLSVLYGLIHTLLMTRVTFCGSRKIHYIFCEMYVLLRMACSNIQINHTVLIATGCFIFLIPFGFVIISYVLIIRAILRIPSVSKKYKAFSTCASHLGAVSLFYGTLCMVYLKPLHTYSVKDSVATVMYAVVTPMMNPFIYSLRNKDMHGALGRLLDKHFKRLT
Protocol: (§1) FIG. 29B depicts representative traces of the functional cell-based response of a cell line described herein expressing human odorant receptor OR1D2 to Bourgeonal (to a final concentration of 0.3 mM) compared to DMSO vehicle background signal as control. Test (black) and control (gray) traces are overlaid. […] The cell-based assay was designed to report calcium flux using a fluorescent calcium signaling dye. Fluorescent assay response is plotted along the Y-axis and time is indicated along the X-axis. Arrows indicate the timepoint at which Bourgeonal or DMSO was added.

[2] = target: T1, human odorant receptor OR1D2; assay: Calcium mobilization (Fluo-4) assay, HEK293T cells expressing OR1D2 and human Gα15; format: cell-based; settings: final concentration 0.3 mM, vs DMSO vehicle, FIG. 29B
Protocol: (§2) Populations of cells were tested using functional criteria. Calcium mobilization dye Fluo-4 (Invitrogen) was used according to manufacturer's instructions. HEK293T cell lines stably expressing h-OR were maintained under standard cell culture conditions in DMEM medium supplemented with 10% fetal bovine serum and glutamine. On the day before assay, the cells were harvested from stock plates and plated into black clear-bottom 384 well assay plates. The assay plates were maintained in a 37° C. cell culture incubator under 5% CO2 for 22-48 hours. […] The assay plates were then loaded on a fluorescent plate reader (Hamamatsu FDSS) and agonist (4.5 mM Helional for OR3A1 and 0.3 mM Bourgeonal for OR1D2-FIGS. 29A, 29B) dissolved in the above buffer (130 mM NaCl, 5 mM KCl, 2 mM CaCl2, 1.2 mM MgCl2, 10 mM HEPES, 10 mM glucose, pH 7.0) was added. Cells were tested at multiple different densities in 384-well plates and responses were analyzed. […]
(§3) In order to identify and measure the ligand-induced responsiveness of odorant receptor-expressing HEK293T cells, receptor activation are monitored by measuring receptor-triggered alterations in intracellular calcium levels. […] Software (Hamamatsu FDSS) analysis of images reports the change in relative fluorescence for each well in the cell plate.

[3] = target: T2, human odorant receptor OR3A1 (Homo sapiens, UniProt P47881, R125Q); assay: calcium flux assay in cell line expressing human odorant receptor OR3A1; format: cell-based; settings: final concentration 4.5 mM
T2 construct: expressed in transfected cells; host or cells: 293T (HEK293T)
T2 sequence (P47881 1-315 R125Q): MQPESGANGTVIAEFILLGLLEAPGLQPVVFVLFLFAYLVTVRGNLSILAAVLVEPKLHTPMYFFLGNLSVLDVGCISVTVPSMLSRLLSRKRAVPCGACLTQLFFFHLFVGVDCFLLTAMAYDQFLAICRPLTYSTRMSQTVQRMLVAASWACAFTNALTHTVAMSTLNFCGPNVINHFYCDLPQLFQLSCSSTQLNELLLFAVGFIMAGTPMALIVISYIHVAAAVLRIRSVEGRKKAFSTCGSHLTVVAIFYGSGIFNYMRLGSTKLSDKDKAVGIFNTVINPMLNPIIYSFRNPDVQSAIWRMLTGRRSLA
Protocol: as §1, with “29 (A-B) depicts representative traces of the functional cell-based response of cells expressing a human odorant receptor to Helional and to Bourgeonal compared to background. FIG. 29A” for “29B”, “OR3A1” for “OR1D2”, “Helional” for “Bourgeonal”, “4.5” for “0.3”

[4] = target: T2, human odorant receptor OR3A1; assay: Calcium mobilization (Fluo-4) assay, HEK293T cells expressing OR3A1 and human Gα15; format: cell-based; settings: final concentration 4.5 mM, vs DMSO vehicle, FIG. 29A
Protocol: as §2, §3

[5] = target: T3, umami taste receptor (T1R1 and T1R3 subunits, Gα15) (Homo sapiens, UniProt Q7RTX0+Q7RTX1, C757R); assay: umami taste receptor-expressing cell-based assay; settings: FIGS. 9-12
T3 construct: expressed in transfected cells; host or cells: HEK293T (ATCC CRL-11268)
T3 sequence (Q7RTX1 21-841): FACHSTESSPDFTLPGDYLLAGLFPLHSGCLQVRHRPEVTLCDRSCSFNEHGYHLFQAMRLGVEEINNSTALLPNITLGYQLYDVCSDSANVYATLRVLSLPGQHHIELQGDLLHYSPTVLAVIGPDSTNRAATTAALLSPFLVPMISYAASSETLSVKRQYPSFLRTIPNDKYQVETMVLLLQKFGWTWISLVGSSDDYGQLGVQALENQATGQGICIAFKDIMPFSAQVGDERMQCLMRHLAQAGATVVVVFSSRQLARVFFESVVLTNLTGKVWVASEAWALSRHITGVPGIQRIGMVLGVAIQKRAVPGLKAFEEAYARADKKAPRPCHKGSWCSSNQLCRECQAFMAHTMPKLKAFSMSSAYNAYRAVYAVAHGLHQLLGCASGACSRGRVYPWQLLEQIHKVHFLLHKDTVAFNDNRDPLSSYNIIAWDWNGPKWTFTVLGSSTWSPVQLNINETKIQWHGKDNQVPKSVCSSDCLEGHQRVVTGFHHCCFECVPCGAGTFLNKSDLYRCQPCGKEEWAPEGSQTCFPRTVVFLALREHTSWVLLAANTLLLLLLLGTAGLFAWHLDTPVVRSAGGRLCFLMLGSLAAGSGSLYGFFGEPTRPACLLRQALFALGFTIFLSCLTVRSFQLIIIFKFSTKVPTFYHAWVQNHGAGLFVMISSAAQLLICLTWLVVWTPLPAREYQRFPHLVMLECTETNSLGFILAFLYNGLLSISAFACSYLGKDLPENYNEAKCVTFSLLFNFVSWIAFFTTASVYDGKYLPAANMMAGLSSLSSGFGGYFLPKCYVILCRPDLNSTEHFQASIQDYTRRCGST
T3 sequence (Q7RTX0 21-852 C757R): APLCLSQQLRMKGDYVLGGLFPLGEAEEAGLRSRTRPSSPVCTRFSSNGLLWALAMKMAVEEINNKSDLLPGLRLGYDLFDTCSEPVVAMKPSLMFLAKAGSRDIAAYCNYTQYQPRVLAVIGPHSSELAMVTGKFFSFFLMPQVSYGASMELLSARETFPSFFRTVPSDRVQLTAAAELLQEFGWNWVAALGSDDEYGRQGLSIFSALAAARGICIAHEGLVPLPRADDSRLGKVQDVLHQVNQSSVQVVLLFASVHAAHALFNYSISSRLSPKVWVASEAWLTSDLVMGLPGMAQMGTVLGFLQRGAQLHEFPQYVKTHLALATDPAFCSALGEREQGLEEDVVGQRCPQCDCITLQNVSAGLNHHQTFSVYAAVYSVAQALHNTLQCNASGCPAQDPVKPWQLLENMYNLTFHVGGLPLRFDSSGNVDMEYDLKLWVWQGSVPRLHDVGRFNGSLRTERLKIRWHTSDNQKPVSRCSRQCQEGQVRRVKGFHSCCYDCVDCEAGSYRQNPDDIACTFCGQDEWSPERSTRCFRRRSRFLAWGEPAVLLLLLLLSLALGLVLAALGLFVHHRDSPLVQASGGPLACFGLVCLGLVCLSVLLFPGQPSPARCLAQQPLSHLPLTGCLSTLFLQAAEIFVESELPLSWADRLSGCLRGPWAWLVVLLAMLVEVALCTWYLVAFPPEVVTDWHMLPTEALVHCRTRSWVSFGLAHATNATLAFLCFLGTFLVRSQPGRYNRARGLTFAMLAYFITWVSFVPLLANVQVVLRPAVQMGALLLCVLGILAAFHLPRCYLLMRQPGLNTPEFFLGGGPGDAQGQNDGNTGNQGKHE
Excerpt: To identify a taste receptor modulator (e.g., umami taste receptor modulator or sweet taste receptor modulator), one exposes a cell or cell line of the invention to a test compound under conditions in which the taste receptor (e.g., umami taste receptor or sweet taste receptor) would be expected to be functional and then detects a statistically significant change (e.g., p<0.05) in taste receptor activity (e.g., umami taste receptor activity or sweet taste receptor activity) compared to a suitable control, e.g., cells that are not exposed to the test compound. Positive and/or negative controls using known agonists or antagonists and/or cells expressing different combinations of taste receptor subunits (e.g., umami taste receptor subunits or sweet taste receptor subunits) (and optionally a G protein) may also be used. In some embodiments, the taste receptor activity (e.g., umami taste receptor activity or sweet taste receptor activity) to be detected and/or measured is calcium release from the endoplasmic reticulum as a result of the down stream signaling events following taste receptor activation (e.g., umami taste receptor activation or sweet taste receptor activation). One of ordinary skill in the art would understand that various assay parameters may be optimized, e.g., signal to noise ratio.

[6] = target: T4, sweet taste receptor (T1R2/T1R3) (Homo sapiens, UniProt Q7RTX0+Q8TE23, C757R/I191V/I486V/R317G); assay: Sweet cell-based calcium flux assay, HEK293T cells expressing T1R2, T1R3 and mouse Gα15; settings: FIG. 20; high density, coated plates, low glucose media, serum deprivation
T4 construct: expressed in transfected cells; host or cells: HEK293T (ATCC CRL-11268)
T4 sequence (Q8TE23 20-839 I191V/R317G/I486V): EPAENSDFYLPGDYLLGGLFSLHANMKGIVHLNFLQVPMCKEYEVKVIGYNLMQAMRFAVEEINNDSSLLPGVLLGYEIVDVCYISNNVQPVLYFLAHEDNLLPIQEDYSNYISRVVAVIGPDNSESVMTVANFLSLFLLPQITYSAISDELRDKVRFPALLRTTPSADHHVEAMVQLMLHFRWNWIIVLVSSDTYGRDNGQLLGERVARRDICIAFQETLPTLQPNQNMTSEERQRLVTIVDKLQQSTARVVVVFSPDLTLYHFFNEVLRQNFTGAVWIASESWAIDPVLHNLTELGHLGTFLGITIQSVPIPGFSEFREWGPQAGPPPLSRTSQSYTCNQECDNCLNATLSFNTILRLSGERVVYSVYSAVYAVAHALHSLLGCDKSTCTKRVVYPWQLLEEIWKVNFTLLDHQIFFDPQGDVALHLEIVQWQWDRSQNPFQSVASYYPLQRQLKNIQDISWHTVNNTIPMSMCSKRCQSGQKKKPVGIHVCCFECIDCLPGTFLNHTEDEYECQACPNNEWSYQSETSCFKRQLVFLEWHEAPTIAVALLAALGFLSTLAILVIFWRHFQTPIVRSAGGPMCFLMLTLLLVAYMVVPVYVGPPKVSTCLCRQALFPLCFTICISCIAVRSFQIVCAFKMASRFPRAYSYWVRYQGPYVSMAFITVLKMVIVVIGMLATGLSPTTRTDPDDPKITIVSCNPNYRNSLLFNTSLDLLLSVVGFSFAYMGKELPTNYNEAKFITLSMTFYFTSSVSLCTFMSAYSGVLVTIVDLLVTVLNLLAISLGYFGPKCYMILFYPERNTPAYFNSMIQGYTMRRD
T4 sequence (Q7RTX0 21-852 C757R): T3 sequence (Q7RTX0 21-852 C757R)
Excerpt: Plates are then loaded on a high throughput plate reader (Hamamatsu FDSS). […] Calcium flux is detected for 90 seconds.

Q: What does the source list for `CC(C)(C)c1ccc(CCC=O)cc1` [Bourgeonal]?
A: functional cell-based (calcium flux) response compared to DMSO vehicle background [1]: response to Bourgeonal over background; functional cell-based calcium flux response [2]: response to Bourgeonal over background

Q: How did the “functional cell-based (calcium flux) response compared to DMSO vehicle background” value [3] turn out when `CC(C=O)Cc1ccc2c(c1)OCO2` (stereo not drawn) [Helional] was run?
A: The value was “response to Helional over background”.

Q: What about the “functional cell-based calcium flux response” value [4] of the same molecule?
A: The value was “response to Helional over background”.

Q: `N[C@@H](CCC(=O)O)C(=O)[O-].[Na+]` [MSG, monosodium glutamate] was tested. Which “response of umami taste receptor cells and cell lines to known classes of umami compounds” value [5] did it give?
A: Its value is “respond”.

Q: And the “response of cells grown in the "Final" growth conditions” value [6]?
A: The value was “not”.
